Measured values from US12329158B2, “Large-scale methods of uniformly coating packaging surfaces with a volatile antimicrobial to preserve food freshness” (AGROFRESH INC., priority 2013, dated 2025).

Key:
Monilinia fructicola = experiment: Volatile MIC assay (Example 9); assay type: cell-based; details: 72 h, headspace concentration, 3 days at 23 C, read-out: MIC (mg/L) MONIFC
Procedure: A 3-mL volume of full-strength Potato Dextrose Agar (PDA) is added to each well. […] Plates are inoculated immediately prior to volatile fungicide treatment. A Whatman #1 filter disk (Cat. No. 1001-0155) is placed, in duplicate, on the underside of a polyethylene PCR plate sealing film. […] The acetone is permitted to evaporate for 5 minutes. The headspace around the inoculum is then sealed inside the well by the film with the adhering disk containing the fungicide by inverting the plates over the treated disks and sealing to prevent any of the chemical from flaking from the disk and falling onto the inoculated agar.

Botrytis cinerea [1] = experiment: Volatilization from treated clamshells onto inoculated agar plates (Example 2); assay type: cell-based
Procedure: An in vitro assay was used to evaluate the ability of Compound A to volatilize from a clamshell to control fungal pathogenic infection when applied to the clamshell by various application techniques. Multiple empty 1-lb PET clamshells (ProducePackaging.com, #036QT) were placed inside triplicate air-tight 36 L chamber (Fisher Scientific, Catalogue #08-642-23C) fitted with a bulkhead septum port (Swagelok, SS-401-61, Solon, OH).
Compound A headspace was permitted to equilibrate overnight at 21° C.
After spraying or painting, the clamshell was then permitted to dry for 5 minutes. After coating the clamshells with Compound A using various applications (i.e., sublimation, spraying, or painting), 10-cm Petri plates containing half strength Potato Dextrose Agar were inoculated with 1 μL of 1×10^5 spores/ml Botrytis cinerea spore suspension. The inoculated petri plates were then sealed with a breathable film (AeraSeal; P/N: B-100, Excel Scientific, Victorville, CA), and placed inside the treated clamshell.
(Series I). After incubation, plates were removed and cultures were evaluated for percent growth relative to a control based on measurement of fungal colony diameter (mm).
Meanwhile, freshly prepared inoculated plates were placed inside the clamshell for an additional three (3) days of incubation (Series 2). This process, where freshly prepared inoculated plates were placed inside the clamshell, was repeated twice more, to produce a 12 full day evaluation of 4 series of 3 days each.

Botrytis cinerea [2] = experiment: Painting on base, lid or base and lid of clamshells; strawberries (Example 6); assay type: in vivo
Procedure: Five milligrams of Compound A was dissolved in 1 ml of ethanol prior to being uniformly administered to the interior of the clamshell by painting or spraying, and then dried for 5 minutes. After coating the clamshells with Compound A using various application techniques (i.e., sublimation, spraying, or painting), eight ethanol-washed strawberries were placed in the clamshell with stem end facing downwards. Each strawberry fruit was wounded using a T15 screwdriver tip to a uniform depth of eight mm (8 mm). […] Uninoculated strawberries were removed from their commercial package, and directly transferred into treated clamshells without any washing or inoculation steps.
Treated clamshells lids were closed, and then placed at 1° C. for an initial time period of 5 days. Clamshells were then removed from low temperature, and held for a second time period of 6 days at room temperature where the point of inoculation on the strawberry fruits was assessed for indication of disease incidence reported as a percentage (%). Severity of disease incidence was also reported.
This in vivo assay was used to evaluate the ability of Compound A to volatilize from different locations of a clamshell (i.e., the base and/or the lid of the clamshell) in order to control or inhibit fruit infection by pathogenic microorganism, Botrytis cinerea. This experiment was conducted exactly as described in Example 1, with a few exceptions. Compound A was administered to the clamshell by painting only. 5 mg of Compound A was painted onto the surface of the base of the clamshell or the lid of the clamshell (i.e., 5 mg/clamshell treatment rate). 2.5 mg of Compound A was painted onto the base and the lid of the clamshell (for a total of 5 mg/clamshell treatment rate). The clamshell was then permitted to dry for 5 minutes. Strawberries were inoculated with Botrytis cinerea, placed within the clamshell for an initial time period of 5 days, and assessed for disease incidence and severity over a second time period of 7 days as described in Example 1.

[3] = Inoculated Fruit, painted on Base and Lid, 2.5/2.5 mg, Day 0
[4] = Inoculated Fruit, painted on Base and Lid, 2.5/2.5 mg, Day 1
[5] = Inoculated Fruit, painted on Base and Lid, 2.5/2.5 mg, Day 2
[6] = Inoculated Fruit, painted on Base and Lid, 2.5/2.5 mg, Day 3
[7] = Inoculated Fruit, painted on Base and Lid, 2.5/2.5 mg, Day 4
[8] = Inoculated Fruit, painted on Base and Lid, 2.5/2.5 mg, Day 5
[9] = Inoculated Fruit, painted on Base and Lid, 2.5/2.5 mg, Day 6
[10] = Inoculated Fruit, painted on Base and Lid, 2.5/2.5 mg, Day 7
[11] = Inoculated Fruit, painted on Base, 5 mg, Day 7
[12] = Uninoculated Fruit, painted on Base, 5 mg, Day 0
[13] = Uninoculated Fruit, painted on Base, 5 mg, Day 1
[14] = Uninoculated Fruit, painted on Base, 5 mg, Day 2
[15] = Uninoculated Fruit, painted on Base, 5 mg, Day 3
[16] = Uninoculated Fruit, painted on Base, 5 mg, Day 4

OB1OCc2cc(F)ccc21 [Compound A, 5-fluoro-1,3-dihydro-1-hydroxy-2,1-benzoxaborole]
MIC (Monilinia fructicola): < 0.6 mg/L | Mycelial Growth Inhibition (%) (Botrytis cinerea [1]; Paint, 0.2 mg/clamshell, Series 1 (0 to 3 days)): 3.4% | Mycelial Growth Inhibition (%) (Botrytis cinerea [1]; Paint, 1 mg/clamshell, Series 1 (0 to 3 days)): 100.0% | Mycelial Growth Inhibition (%) (Botrytis cinerea [1]; Paint, 1 mg/clamshell, Series 2 (3 to 6 days)): 18.8% | Mycelial Growth Inhibition (%) (Botrytis cinerea [1]; Paint, 5 mg/clamshell, Series 1 (0 to 3 days)): 100.0% | Mycelial Growth Inhibition (%) (Botrytis cinerea [1]; Paint, 5 mg/clamshell, Series 2 (3 to 6 days)): 100.0% | Mycelial Growth Inhibition (%) (Botrytis cinerea [1]; Paint, 5 mg/clamshell, Series 3 (6 to 9 days)): 57.5% | Mycelial Growth Inhibition (%) (Botrytis cinerea [1]; Paint, 5 mg/clamshell, Series 4 (9 to 12 days)): 44.7% | Mycelial Growth Inhibition (%) (Botrytis cinerea [1]; Spray, 0.2 mg/clamshell, Series 1 (0 to 3 days)): 81.2% | Mycelial Growth Inhibition (%) (Botrytis cinerea [1]; Spray, 1 mg/clamshell, Series 1 (0 to 3 days)): 100.0% | Mycelial Growth Inhibition (%) (Botrytis cinerea [1]; Spray, 1 mg/clamshell, Series 2 (3 to 6 days)): 18.6% | Mycelial Growth Inhibition (%) (Botrytis cinerea [1]; Spray, 1 mg/clamshell, Series 3 (6 to 9 days)): 0.0% | Mycelial Growth Inhibition (%) (Botrytis cinerea [1]; Spray, 5 mg/clamshell, Series 1 (0 to 3 days)): 100.0% | Mycelial Growth Inhibition (%) (Botrytis cinerea [1]; Spray, 5 mg/clamshell, Series 2 (3 to 6 days)): 100.0% | Mycelial Growth Inhibition (%) (Botrytis cinerea [1]; Spray, 5 mg/clamshell, Series 3 (6 to 9 days)): 61.2% | Mycelial Growth Inhibition (%) (Botrytis cinerea [1]; Spray, 5 mg/clamshell, Series 4 (9 to 12 days)): 64.9% | Mycelial Growth Inhibition (%) (Botrytis cinerea [1]; Sublimation, 0.2 mg/clamshell, Series 1 (0 to 3 days)): 90.9% | Mycelial Growth Inhibition (%) (Botrytis cinerea [1]; Sublimation, 0.2 mg/clamshell, Series 3 (6 to 9 days)): 0.0% | Mycelial Growth Inhibition (%) (Botrytis cinerea [1]; Sublimation, 1 mg/clamshell, Series 1 (0 to 3 days)): 90.1% | Mycelial Growth Inhibition (%) (Botrytis cinerea [1]; Sublimation, 5 mg/clamshell, Series 1 (0 to 3 days)): 100.0% | Mycelial Growth Inhibition (%) (Botrytis cinerea [1]; Sublimation, 5 mg/clamshell, Series 2 (3 to 6 days)): 100.0% | Mycelial Growth Inhibition (%) (Botrytis cinerea [1]; Sublimation, 5 mg/clamshell, Series 3 (6 to 9 days)): 83.1% | Mycelial Growth Inhibition (%) (Botrytis cinerea [1]; Sublimation, 5 mg/clamshell, Series 4 (9 to 12 days)): 84.4% | Gray Mold Incidence (%) (Botrytis cinerea [2]; [3]): 0.0% | Gray Mold Severity (0-4) (Botrytis cinerea [2]; [3]): 0.0 | Gray Mold Incidence (%) (Botrytis cinerea [2]; [4]): 0.0% | Gray Mold Severity (0-4) (Botrytis cinerea [2]; [4]): 0.0 | Gray Mold Incidence (%) (Botrytis cinerea [2]; [5]): 0.0% | Gray Mold Severity (0-4) (Botrytis cinerea [2]; [5]): 0.0 | Gray Mold Incidence (%) (Botrytis cinerea [2]; [6]): 0.0% | Gray Mold Severity (0-4) (Botrytis cinerea [2]; [6]): 0.0 | Gray Mold Incidence (%) (Botrytis cinerea [2]; [7]): 0.0% | Gray Mold Severity (0-4) (Botrytis cinerea [2]; [7]): 0.0 | Gray Mold Incidence (%) (Botrytis cinerea [2]; [8]): 0.0% | Gray Mold Severity (0-4) (Botrytis cinerea [2]; [8]): 0.0 | Gray Mold Incidence (%) (Botrytis cinerea [2]; [9]): 0.0% | Gray Mold Severity (0-4) (Botrytis cinerea [2]; [9]): 0.0 | Gray Mold Incidence (%) (Botrytis cinerea [2]; [10]): 0.0% | Gray Mold Severity (0-4) (Botrytis cinerea [2]; [10]): 0.0 | Gray Mold Severity (0-4) (Botrytis cinerea [2]; Inoculated Fruit, painted on Base, 5 mg, Day 0): 0.0 | Gray Mold Severity (0-4) (Botrytis cinerea [2]; Inoculated Fruit, painted on Base, 5 mg, Day 1): 0.0 | Gray Mold Severity (0-4) (Botrytis cinerea [2]; Inoculated Fruit, painted on Base, 5 mg, Day 2): 0.1 | Gray Mold Severity (0-4) (Botrytis cinerea [2]; Inoculated Fruit, painted on Base, 5 mg, Day 3): 0.1 | Gray Mold Severity (0-4) (Botrytis cinerea [2]; Inoculated Fruit, painted on Base, 5 mg, Day 4): 0.0 | Gray Mold Severity (0-4) (Botrytis cinerea [2]; Inoculated Fruit, painted on Base, 5 mg, Day 5): 0.0 | Gray Mold Severity (0-4) (Botrytis cinerea [2]; Inoculated Fruit, painted on Base, 5 mg, Day 6): 0.2 | Gray Mold Incidence (%) (Botrytis cinerea [2]; [11]): 18.8% | Gray Mold Severity (0-4) (Botrytis cinerea [2]; [11]): 0.3 | Gray Mold Severity (0-4) (Botrytis cinerea [2]; Inoculated Fruit, painted on Lid, 5 mg, Day 0): 0.0 | Gray Mold Severity (0-4) (Botrytis cinerea [2]; Inoculated Fruit, painted on Lid, 5 mg, Day 1): 0.0 | Gray Mold Severity (0-4) (Botrytis cinerea [2]; Inoculated Fruit, painted on Lid, 5 mg, Day 2): 0.0 | Gray Mold Severity (0-4) (Botrytis cinerea [2]; Inoculated Fruit, painted on Lid, 5 mg, Day 3): 0.0 | Gray Mold Severity (0-4) (Botrytis cinerea [2]; Inoculated Fruit, painted on Lid, 5 mg, Day 4): 0.0 | Gray Mold Severity (0-4) (Botrytis cinerea [2]; Inoculated Fruit, painted on Lid, 5 mg, Day 5): 0.0 | Gray Mold Severity (0-4) (Botrytis cinerea [2]; Inoculated Fruit, painted on Lid, 5 mg, Day 6): 0.0 | Gray Mold Severity (0-4) (Botrytis cinerea [2]; Inoculated Fruit, painted on Lid, 5 mg, Day 7): 0.0 | Gray Mold Severity (0-4) (Botrytis cinerea [2]; Uninoculated Fruit, painted on Base and Lid, 2.5/2.5 mg, Day 0): 0.0 | Gray Mold Severity (0-4) (Botrytis cinerea [2]; Uninoculated Fruit, painted on Base and Lid, 2.5/2.5 mg, Day 1): 0.0 | Gray Mold Severity (0-4) (Botrytis cinerea [2]; Uninoculated Fruit, painted on Base and Lid, 2.5/2.5 mg, Day 2): 0.0 | Gray Mold Severity (0-4) (Botrytis cinerea [2]; Uninoculated Fruit, painted on Base and Lid, 2.5/2.5 mg, Day 3): 0.2 | Gray Mold Severity (0-4) (Botrytis cinerea [2]; Uninoculated Fruit, painted on Base and Lid, 2.5/2.5 mg, Day 4): 0.8 | Gray Mold Severity (0-4) (Botrytis cinerea [2]; Uninoculated Fruit, painted on Base and Lid, 2.5/2.5 mg, Day 5): 1.5 | Gray Mold Severity (0-4) (Botrytis cinerea [2]; Uninoculated Fruit, painted on Base and Lid, 2.5/2.5 mg, Day 6): 1.5 | Gray Mold Severity (0-4) (Botrytis cinerea [2]; Uninoculated Fruit, painted on Base and Lid, 2.5/2.5 mg, Day 7): 1.5 | Gray Mold Incidence (%) (Botrytis cinerea [2]; [12]): 0.0% | Gray Mold Severity (0-4) (Botrytis cinerea [2]; [12]): 0.0 | Gray Mold Incidence (%) (Botrytis cinerea [2]; [13]): 0.0% | Gray Mold Severity (0-4) (Botrytis cinerea [2]; [13]): 0.0 | Gray Mold Incidence (%) (Botrytis cinerea [2]; [14]): 0.0% | Gray Mold Severity (0-4) (Botrytis cinerea [2]; [14]): 0.0 | Gray Mold Incidence (%) (Botrytis cinerea [2]; [15]): 0.0% | Gray Mold Severity (0-4) (Botrytis cinerea [2]; [15]): 0.0 | Gray Mold Incidence (%) (Botrytis cinerea [2]; [16]): 2.2% | Gray Mold Severity (0-4) (Botrytis cinerea [2]; [16]): 0.3 | Gray Mold Severity (0-4) (Botrytis cinerea [2]; Uninoculated Fruit, painted on Base, 5 mg, Day 5): 0.8 | Gray Mold Severity (0-4) (Botrytis cinerea [2]; Uninoculated Fruit, painted on Base, 5 mg, Day 6): 1.2 | Gray Mold Severity (0-4) (Botrytis cinerea [2]; Uninoculated Fruit, painted on Base, 5 mg, Day 7): 1.5 | Gray Mold Severity (0-4) (Botrytis cinerea [2]; Uninoculated Fruit, painted on Lid, 5 mg, Day 0): 0.0 | Gray Mold Severity (0-4) (Botrytis cinerea [2]; Uninoculated Fruit, painted on Lid, 5 mg, Day 1): 0.0 | Gray Mold Severity (0-4) (Botrytis cinerea [2]; Uninoculated Fruit, painted on Lid, 5 mg, Day 2): 0.0 | Gray Mold Severity (0-4) (Botrytis cinerea [2]; Uninoculated Fruit, painted on Lid, 5 mg, Day 3): 0.2 | Gray Mold Severity (0-4) (Botrytis cinerea [2]; Uninoculated Fruit, painted on Lid, 5 mg, Day 4): 1.2 | Gray Mold Severity (0-4) (Botrytis cinerea [2]; Uninoculated Fruit, painted on Lid, 5 mg, Day 5): 2.0 | Gray Mold Severity (0-4) (Botrytis cinerea [2]; Uninoculated Fruit, painted on Lid, 5 mg, Day 6): 2.0 | Gray Mold Severity (0-4) (Botrytis cinerea [2]; Uninoculated Fruit, painted on Lid, 5 mg, Day 7): 2.5
